Experimental data: US20200109126A1 (priority 2017, published 2020)
“Also recorded” adds a separate entry of the source.

Tests used:
hERG ion channel = hERG ion channel (Homo sapiens, UniProt Q12809); test: Inhibition of hERG channel; assay type: biochemical
μOR [1] = molecular target: T1, μOR (Homo sapiens, UniProt P35372); test: cell-based; assay type: cell-based
κOR [2] = molecular target: T2, κOR (Homo sapiens, UniProt P41145); test: Radioligand binding at κOR (PDSP); settings: Ki (nM) κOR
T2 construct: NIMH Psychoactive Drug Screening Program (PDSP)

C57BL/6J mice [3] = test: Formalin injection assay; settings: PZM21 40 mg/kg
Procedure: Analgesia to formalin injection was carried out as described previously^66. Mice were first habituated for 20 minutes to the testing environment which included a home cage without bedding, food, and water. […] This was followed by injection of 20 μL of 1% formalin in 0.9% saline under the skin of the dorsal surface of the right hindpaw. Animals were returned to their home cage and behavioral responses were recorded for one hour. Nociception was estimated by measuring the cumulative time spent by animals licking the formalin-injected paw. As opioids classically display two phases of analgesic action, nociceptive behavior was measured during both the early phase (0 to 5 minutes) and the late phase (20 to 30 minutes).

μOR [4] = molecular target: T1, μOR; test: β-arrestin2 recruitment, PathHunter assay; assay type: cell-based
C57BL/6J mice [5] = test: Hot-plate analgesia
C57BL/6J mice [6] = test: Conditioned place preference; settings: mouse, in vivo
Procedure: On day 1 (preconditioning day), mice were placed in the central chamber and allowed to explore freely for 30 minutes. Time spent in each compartment was used to estimate baseline chamber preferences and mice showing specific chamber bias more than 70% were not studied further. On days 2-9 (conditioning days) mice were injected with either vehicle or drug and paired with either the white mesh or the black rod chambers. All mice received vehicle on days 2, 4, 6, 8 and drug on days 3, 5, 7, 9. On day 10 (test day), mice were again placed in the central chamber as on day 1 and allowed to explore freely for 30 minutes. Time spent in each chamber was expressed as percentage preference.

320 non-olfactory GPCRs = test: PRESTO-Tango GPCRome β-arrestin recruitment screen for off-target agonism; assay type: cell-based; settings: 10 μM, hits re-tested in full dose-response
From the text: Potential positive receptor hits were defined as those that increase the relative luminescence value by two fold. […] A number of false positive hits were discounted by this approach.

[7] = Pharmacokinetics of PZM21 (serum and brain); assay type: in vivo, mouse; settings: 20 mg/kg subcutaneous
Procedure: Studies were performed by the Preclinical Therapeutics Core and the Drug Studies Unit at the University of California San Francisco.

C57BL/6J mice [8] = test: Accumulated fecal boli quantification (constipation); settings: PZM21 20 mg/kg, morphine 10 mg/kg
μOR [9] = molecular target: T1, μOR; test: Receptor internalization (PathHunter GPCR internalization assay); assay type: cell-based; settings: maximal concentration
δOR [10] = molecular target: T3, δOR (Homo sapiens, UniProt P41143); test: Radioligand binding at δOR (PDSP)
T3 construct: NIMH Psychoactive Drug Screening Program (PDSP)

κOR [11] = molecular target: T2, κOR; test: Gi/o Glosensor assay at κOR; assay type: cell-based
C57BL/6J mice [12] = test: Open field locomotor response; settings: PZM21 20 mg/kg, morphine 10 mg/kg
δOR [13] = molecular target: T3, δOR; test: Gi/o Glosensor assay at δOR; assay type: cell-based; settings: ND = not detectable
μOR [14] = molecular target: T1, μOR; test: β-arrestin recruitment at μOR without GRK2; assay type: cell-based
μOR [15] = molecular target: T1, μOR; test: Calcium release (FLIPR); assay type: cell-based; parameters: expressed in transfected cells
Procedure: Calcium release was measured using a FLIPR^TETRA fluorescence imaging plate reader (Molecular Devices). Calcium release experiments were run in parallel to Gi/o Glosensor experiments with the same HEKT cells transfected with μOR, except cells for FLIPR were plated in poly-lysine coated 384-well black clear bottom cell culture plates. Cells were incubated at 37° C. with 5% CO2 overnight, and next day, media was decanted and replaced with Fluo-4 direct calcium dye (Life Technologies) made up in HBSS with 20 mM HEPES, pH 7.4. Dye was incubated for 1 hour at 37° C. Afterwards, cells were equilibrated to room temperature, and fluorescence in each well was read for the initial 10 seconds to establish a baseline. Afterwards, 10 μL of drug (3×) was added per well and the maximum-fold increase in fluorescence was determined as fold-over-baseline. Drug solutions used for the FLIPR assay were exactly the same as used for Gi/o Glosensor experiments. To activate endogenous Gq-coupled receptors as a positive control for calcium release, TFLLR-NH2 (10 μM, PAR-1 selective agonist) was used.

nociceptin receptor = molecular target: T4, nociceptin receptor (Homo sapiens, UniProt P41146); test: Gi/o Glosensor assay at nociceptin receptor; assay type: cell-based
T4 construct: NIMH Psychoactive Drug Screening Program (PDSP)

[16] = Metabolism by mouse liver microsomes; assay type: in vitro ADME; settings: over one hour
Procedure: Metabolism experiments were performed as described previously. In brief, pooled microsomes from male mouse liver (CD-1) were purchased (Sigma Aldrich) and stored at −75° C. until required. NADPH was purchased (Carl Roth) and stored at −8° C. The incubation reactions were carried out in polyethylene caps (Eppendorf, 1.5 mL) at 37° C. […] The final incubation volume was 0.5 mL. Microsomal reactions were initiated by addition of 50 μL of enzyme cofactor solution NADPH (final concentration of 1 mM). At 0, 15, 30 and 60 min the enzymatic reactions were terminated by addition of 500 μL of ice-cold acetonitrile (containing 8 μM internal standard), and precipitated protein was removed by centrifugation (15,000 rcf for 3 min). The supernatant was analyzed by HPLC/MS (binary solvent system, eluent acetonitrile in 0.1% aqueous formic acid, 10-40% acetonitrile in 8 min, 40-95% acetonitrile in 1 min, 95% acetonitrile for 1 min, flow rate of 0.3 mL/min). The experiments were repeated in three independent experiments. […] Substrate remaining and metabolite formation was calculated as a mean value+SEM of three independent experiments by comparing AUC of metabolites and substrate after predetermined incubation time to AUC of substrate at time 0, estimating a similar ionization rate, corrected by a factor calculated from the AUC of internal standard at each time point.

μOR [17] = molecular target: T1, μOR; test: biochemical; assay type: binding; parameters: expressed in transfected cells; host or cells: HEK293 membranes (Ki); Sf9 insect cell membranes (single-point screen); PDSP for analogs
Procedure: For a primary screen of selected molecules, binding to OR was assessed by measuring competition against the radioligand ^3H-diprenorphine (^3H-DPN). […] The reaction contained 40 fmol of μOR and was incubated in a buffer of 20 mM HEPES pH 7.5, 100 mM sodium chloride, and 0.1% bovine serum albumin for 1 hour at 25° C. To separate free from bound radioligand, reactions were rapidly filtered over Whatman GF/B filters with the aid of a Brandel harvester and ^3H-DPN counts were measured by liquid scintillation.

C57BL/6J mice [18] = test: Cataleptic effect (bar test); settings: PZM21 20 mg/kg
Procedure: Drug induced catalepsy was measured in mice using the bar test, which includes a horizontally placed 3 mm diameter wooden bar fixed 4 cm above the floor. […] To measure catalepsy, both forepaws were gently placed on the bar and the length of time during which each mouse remained in the initial position was measured. The effect was measured at 15, 30 and 90 minutes after drug injection. Maximum cut-off time for each challenge was 90 seconds.

T2 sequence (P41145 whole entry): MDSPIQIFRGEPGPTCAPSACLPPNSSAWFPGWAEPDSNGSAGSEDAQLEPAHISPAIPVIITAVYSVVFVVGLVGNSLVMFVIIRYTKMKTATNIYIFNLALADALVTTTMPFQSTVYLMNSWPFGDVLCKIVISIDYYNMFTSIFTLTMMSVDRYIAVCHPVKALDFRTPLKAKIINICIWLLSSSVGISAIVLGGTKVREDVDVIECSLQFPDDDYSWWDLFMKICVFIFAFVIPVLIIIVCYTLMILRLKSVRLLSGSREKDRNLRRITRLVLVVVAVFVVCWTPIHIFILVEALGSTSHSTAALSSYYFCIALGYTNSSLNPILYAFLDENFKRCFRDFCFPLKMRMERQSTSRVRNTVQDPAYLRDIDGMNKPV
T1 sequence (P35372 whole entry): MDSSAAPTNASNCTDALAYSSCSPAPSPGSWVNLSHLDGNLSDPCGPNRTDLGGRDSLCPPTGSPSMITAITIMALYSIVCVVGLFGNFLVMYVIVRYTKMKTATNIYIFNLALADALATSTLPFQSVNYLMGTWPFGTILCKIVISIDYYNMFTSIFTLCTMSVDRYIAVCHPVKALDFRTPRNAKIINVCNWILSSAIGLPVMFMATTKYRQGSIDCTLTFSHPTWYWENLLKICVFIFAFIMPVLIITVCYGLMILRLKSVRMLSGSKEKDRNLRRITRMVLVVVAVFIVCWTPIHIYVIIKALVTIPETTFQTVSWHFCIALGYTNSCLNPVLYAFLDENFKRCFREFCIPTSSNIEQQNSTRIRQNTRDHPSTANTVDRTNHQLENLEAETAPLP
T3 sequence (P41143 whole entry): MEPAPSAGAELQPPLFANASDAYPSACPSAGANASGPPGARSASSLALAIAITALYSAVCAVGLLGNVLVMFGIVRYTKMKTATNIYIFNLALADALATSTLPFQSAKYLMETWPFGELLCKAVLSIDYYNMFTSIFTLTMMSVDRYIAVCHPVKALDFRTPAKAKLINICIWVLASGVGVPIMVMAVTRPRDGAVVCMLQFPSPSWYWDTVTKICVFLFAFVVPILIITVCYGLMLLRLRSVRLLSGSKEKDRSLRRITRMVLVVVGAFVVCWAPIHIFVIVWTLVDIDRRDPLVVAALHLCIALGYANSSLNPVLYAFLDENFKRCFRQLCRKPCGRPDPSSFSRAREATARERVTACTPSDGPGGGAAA
T4 sequence (P41146 whole entry): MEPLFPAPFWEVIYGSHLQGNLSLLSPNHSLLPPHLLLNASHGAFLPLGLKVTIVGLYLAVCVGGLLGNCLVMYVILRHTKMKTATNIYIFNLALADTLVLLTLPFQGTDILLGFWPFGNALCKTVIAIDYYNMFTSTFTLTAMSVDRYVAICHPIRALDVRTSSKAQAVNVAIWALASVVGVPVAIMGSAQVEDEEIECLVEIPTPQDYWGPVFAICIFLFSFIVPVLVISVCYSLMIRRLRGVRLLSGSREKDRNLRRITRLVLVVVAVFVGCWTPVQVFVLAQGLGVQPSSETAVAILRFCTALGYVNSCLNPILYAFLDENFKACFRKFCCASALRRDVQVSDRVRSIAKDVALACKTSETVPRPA
hERG ion channel, sequence (Q12809 whole entry): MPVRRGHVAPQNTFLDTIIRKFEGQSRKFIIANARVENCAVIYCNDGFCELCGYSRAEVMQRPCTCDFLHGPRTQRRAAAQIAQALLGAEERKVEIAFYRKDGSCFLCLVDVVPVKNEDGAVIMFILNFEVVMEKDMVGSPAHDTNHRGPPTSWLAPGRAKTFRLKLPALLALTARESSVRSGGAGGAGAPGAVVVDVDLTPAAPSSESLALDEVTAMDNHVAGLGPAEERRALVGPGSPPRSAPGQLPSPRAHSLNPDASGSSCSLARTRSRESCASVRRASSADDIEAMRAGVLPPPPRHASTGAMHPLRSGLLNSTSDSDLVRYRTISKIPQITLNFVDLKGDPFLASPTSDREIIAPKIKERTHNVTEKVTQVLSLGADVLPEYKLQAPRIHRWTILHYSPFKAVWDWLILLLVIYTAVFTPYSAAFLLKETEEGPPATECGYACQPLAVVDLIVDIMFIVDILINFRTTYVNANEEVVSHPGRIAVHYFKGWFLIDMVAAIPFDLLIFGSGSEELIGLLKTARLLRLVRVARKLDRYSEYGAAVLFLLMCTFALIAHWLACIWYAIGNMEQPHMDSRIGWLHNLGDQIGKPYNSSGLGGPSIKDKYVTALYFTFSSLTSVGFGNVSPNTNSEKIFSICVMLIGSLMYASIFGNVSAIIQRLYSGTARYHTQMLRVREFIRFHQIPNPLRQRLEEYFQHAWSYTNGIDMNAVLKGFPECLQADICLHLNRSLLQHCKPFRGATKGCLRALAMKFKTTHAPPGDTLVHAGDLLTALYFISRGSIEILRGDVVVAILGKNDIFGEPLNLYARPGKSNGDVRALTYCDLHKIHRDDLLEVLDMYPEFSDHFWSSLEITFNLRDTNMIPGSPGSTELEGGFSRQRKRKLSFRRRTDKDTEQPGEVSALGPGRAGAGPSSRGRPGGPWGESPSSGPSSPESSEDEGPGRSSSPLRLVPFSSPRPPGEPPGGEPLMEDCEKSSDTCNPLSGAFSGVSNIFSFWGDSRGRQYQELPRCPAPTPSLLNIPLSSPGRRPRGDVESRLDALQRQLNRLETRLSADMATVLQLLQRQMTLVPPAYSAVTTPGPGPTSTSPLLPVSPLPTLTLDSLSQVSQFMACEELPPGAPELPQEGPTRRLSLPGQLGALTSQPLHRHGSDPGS

C[C@@H](Cc1ccsc1)NC(=O)NC[C@H](Cc1ccc(O)cc1)N(C)C [PZM21, 1-[(S)-2-(Dimethylamino)-3-(4-hydroxyphenyl)propyl]-3-((S)-1-(thiophen-3-yl)propan-2-yl)urea]
IC50 (hERG ion channel): 2 to 4 µM | Gi/o activation, μOR agonist activity (in words) (μOR [1]): robust μOR agonist activity | Ki (κOR [2]): 18 nM | activity in formalin injection nociception assay (C57BL/6J mice [3]): active | β-arrestin2 recruitment (in words) (μOR [4]): undetectable; also recorded: minimal recruitment of β-arrestin2; also recorded: no detectable | duration of analgesia (C57BL/6J mice [5]; hot plate): up to 180 minutes | percent maximal possible effect (% MPE) (C57BL/6J mice [5]; hot plate, highest dose of drug tested, 15 minutes after administration): 87% | analgesia in hot-plate assay (in words) (C57BL/6J mice [5]; mouse, subcutaneous): dose-dependent analgesia | conditioned place preference (C57BL/6J mice [6]): does not induce a conditioned place preference response | agonism against 316 other GPCRs (320 non-olfactory GPCRs): no potent activity was confirmed | blood brain barrier penetration [7]: substantial fraction of PZM21 crosses the blood brain barrier | constipation effect (C57BL/6J mice [8]): reduced constipatory effects as compared to morphine; also recorded: substantially less than morphine | μOR internalization (μOR [9]): minimal level of μOR internalization compared to DAMGO and morphine | Ki (δOR [10]): 506 nM | KOR agonist activity (in words) (κOR [11]): no detectable | mode of action at KOR (κOR [11]; antagonist mode): antagonist | open field locomotion (C57BL/6J mice [12]): does not induce open field locomotion; also recorded: no apparent effect on locomotion versus vehicle | EC50 (δOR [13]): 1900 nM | Arrestin Emax % DAMGO (μOR [14]): 15 % DAMGO | β-arrestin2 recruitment in the absence of GRK2 (in words) (μOR [14]): no β-arrestin2 recruitment | calcium release (μOR [15]): no activity was observed | nociceptin receptor agonist activity (in words) (nociceptin receptor): no detectable | metabolism by mouse liver microsomes [16]: 8% | optimization from initial docking hit compound 7 (μOR [17]): 1000 fold | improvement versus 12 (μOR [17]; Ki and EC50 of (S,S)-21 against compound 12): 40 fold | cataleptic behavior (C57BL/6J mice [18]): does not induce cataleptic behavior
